This is an account of results in PMC5608353 (PLoS ONE, 2017).

Converted amounts (≈) assume the structure as drawn. Where two headings read alike, the source gives them in different places.

In data set [1] the test system is C. perfringens JT1.
The test system of data set [2] is C. perfringens JC2.
The test system of data set [3] is human erythrocytes, epidermal keratinocytes, A549 cells, murine L929 fibroblasts, porcine intestinal epithelial cell line ZYMSIEC02. The note with it: cited from earlier work.
In data set [4] the test system is C. perfringens JZ10.
The subject of data set [5] is C. perfringens CVCC 46.
Data set [6] relates to C. perfringens JT1. Kind of data set: microbe, parasite or virus in culture. The note with it: Clostridium perfringens, JT1, 18 h.
The subject of data set [7] is C. perfringens CVCC 46. The note with it: for MICa (MIC of drug used alone): chequerboard, triplicate.
Data set [8] concerns C. perfringens CVCC 51. As to the kind of experiment: microbe, parasite or virus in culture. To be noted: Clostridium perfringens, CVCC51, 18 h.
The subject of data set [9] is C. perfringens CVCC 46. As to the kind of experiment: microbe, parasite or virus in culture. To be noted: Clostridium perfringens, CVCC46, read-out: MICa (MIC of drug used alone).
Data set [10] deals with C. perfringens CVCC 1137. Kind of data set: microbe, parasite or virus in culture. To be noted: Clostridium perfringens, CVCC1137, 18 h.
For data set [11], the system named is C. perfringens JZ10. Kind of data set: microbe, parasite or virus in culture. To be noted: Clostridium perfringens, JZ10, 18 h.
The subject of data set [12] is C. perfringens CVCC 46. As to the kind of experiment: microbe, parasite or virus in culture. The note with it: Clostridium perfringens, CVCC46, 18 h.
Data set [13] relates to C. perfringens CVCC 46. It is filed as cell-based, Clostridium perfringens type A.
Data set [14] concerns C. perfringens JC2. Kind of data set: microbe, parasite or virus in culture. To be noted: Clostridium perfringens, JC2, 18 h.
The subject of data set [15] is C. perfringens CVCC 1137. The note with it: CVCC 1137; broth microdilution, anaerobic 37°C, 12~18 h.
The subject of data set [16] is C. perfringens CVCC 51. The note with it: CVCC 51; broth microdilution, anaerobic 37°C, 12~18 h.
Where [17] appears, read: JT1, broth microdilution, anaerobic 37°C, 12~18 h.
Where [18] appears, read: JC2, broth microdilution, anaerobic 37°C, 12~18 h.
Where [19] appears, read: JZ10, broth microdilution, anaerobic 37°C, 12~18 h.
[20] abbreviates: CVCC 46, broth microdilution, 1×10^5 CFU/mL, anaerobic 37°C, 12~18 h, triplicate.
[21] abbreviates: CVCC 46, broth microdilution, anaerobic 37°C, 12~18 h, triplicate.
Where [22] appears, read: CVCC 46, 2×MIC, 1×10^5 CFU/mL, 37°C, colony counts.

Take `CC[C@H](C)[C@@H]1NC(=O)[C@H](CO)NC(=O)[C@H](CCCCN)NC(=O)[C@@H]2CSSC[C@@H](C(=O)N[C@@H](Cc3ccc(O)cc3)C(=O)O)NC(=O)[C@H](CCCCN)NC(=O)[C@@H]3CSSC[C@H](NC(=O)[C@H](CCC(N)=O)NC(=O)[C@H](CCSC)NC(=O)[C@H](CC(=O)O)NC(=O)[C@H](CC(=O)O)NC(=O)[C@H](CCC(=O)O)NC(=O)[C@H](CC(=O)O)NC(=O)[C@H](Cc4c[nH]c5ccccc45)NC(=O)[C@@H]4CCCN4C(=O)CNC(=O)[C@H](CC(N)=O)NC(=O)[C@@H](NC(=O)CNC(=O)[C@H](Cc4ccccc4)NC(=O)CN)CSSC[C@H](NC(=O)[C@H](Cc4ccc(O)cc4)NC(=O)CNC(=O)CNC(=O)[C@H](CCCCN)NC(=O)[C@H](Cc4ccc(O)cc4)NC(=O)CNC(=O)[C@H](CCCCN)NC1=O)C(=O)N[C@@H](C)C(=O)N[C@@H](CCCCN)C(=O)NCC(=O)NCC(=O)N[C@@H](Cc1ccccc1)C(=O)N[C@@H](C(C)C)C(=O)N3)C(=O)N[C@@H](Cc1c[nH]cn1)C(=O)N[C@@H](CC(N)=O)C(=O)N[C@@H](Cc1c[nH]cn1)C(=O)N2` [Plectasin]: the MIC against C. perfringens JT1 [1] (JT1, 18 h) is 0.23 µM (≈ 1.01 µg/mL); against C. perfringens JC2 [2] (JC2, 18 h), above 14.5 µM; with C. perfringens JZ10 [4] (JZ10, 18 h), above 14.5 µM; with C. perfringens CVCC 46 [5] (CVCC 46, 18 h), 1.81 µM (≈ 7.97 µg/mL). For the same compound, in data set [3], the Hemolysis / cytotoxicity entry is given as “non-hemolytic or non-cytotoxic”. For the same compound, the MBC in the data set with C. perfringens CVCC 46 [5] (CVCC 46, 18 h) turned out to be 1.81 µM (≈ 7.97 µg/mL).

As for `CN[C@H](CC(C)C)C(=O)N[C@H]1C(=O)N[C@@H](CC(N)=O)C(=O)N[C@H]2C(=O)N[C@H]3C(=O)N[C@H](C(=O)N[C@H](C(=O)O)c4cc(O)cc(O)c4-c4cc3ccc4O)[C@H](O)c3ccc(c(Cl)c3)Oc3cc2cc(c3O[C@@H]2O[C@H](CO)[C@@H](O)[C@H](O)[C@H]2O[C@H]2C[C@](C)(N)[C@H](O)[C@H](C)O2)Oc2ccc(cc2Cl)[C@H]1O` [Vancomycin], the MIC is 0.69 µM (≈ 1 µg/mL) against C. perfringens JT1 [6]; 0.69 µM (≈ 1 µg/mL) against C. perfringens CVCC 51 [8]; 0.69 µM in the data set with C. perfringens CVCC 46 [9]; 0.69 µM (≈ 1 µg/mL) in the data set with C. perfringens CVCC 1137 [10]; 22.1 µM (≈ 32 µg/mL) in the data set with C. perfringens JZ10 [11]; 0.69 µM (≈ 1 µg/mL) in the data set on C. perfringens CVCC 46 [12]. In the data set on C. perfringens JC2 [14], this compound registered an MIC of 22.1 µM (≈ 32 µg/mL). The FIC in the data set on C. perfringens CVCC 46 [7] came to 0.5. The “MICC (MIC of drug used in combination)” value in the data set with C. perfringens CVCC 46 [7] was 0.345 µM. This compound registered an MBC in the data set with C. perfringens CVCC 46 [12] of 0.69 µM (≈ 1 µg/mL). Further, the “Time to 99.9% reduction of bacterial counts” value (shortened to “Time to 99.9% reduction”) in the data set with C. perfringens CVCC 46 [13] is listed as 8 h.

Bacitracin zinc: the MIC against C. perfringens JT1 [1] (setting [17]) is 0.67 µM; against C. perfringens JC2 [2] (setting [18]), above 86.1 µM; against C. perfringens CVCC 1137 [15], 1.35 µM; with C. perfringens JZ10 [4] (setting [19]), above 86.1 µM; in the data set on C. perfringens CVCC 46 [5] (setting [20]), 0.67 µM; against C. perfringens CVCC 51 [16] it was 1.35 µM. The “MICa (MIC of drug used alone)” value in the data set with C. perfringens CVCC 46 [7] (CVCC 46) is 0.67 µM. Moreover, the FIC in the data set on C. perfringens CVCC 46 [7] (combination Bacitracin zinc-MP1102, MIC in combination / MIC alone) came out at 0.5; in the data set with C. perfringens CVCC 46 [7] (combination Bacitracin zinc-NZ2114, MIC in combination / MIC alone), 0.25. Moreover, the MBC in the data set with C. perfringens CVCC 46 [5] (setting [21]) was 1.34 µM. The “Time to 99.9% reduction” value in the data set on C. perfringens CVCC 46 [13] (setting [22]) was found to be 8 h.

As for Virginiamycin, the MIC against C. perfringens JT1 [1] (setting [17]) came to 0.46 µM; in the data set on C. perfringens JC2 [2] (setting [18]) it was 60.9 µM; with C. perfringens CVCC 1137 [15], 0.48 µM; in the data set with C. perfringens JZ10 [4] (setting [19]), 121.8 µM; in the data set with C. perfringens CVCC 46 [5] (setting [20]), 0.96 µM; with C. perfringens CVCC 51 [16], 0.24 µM. Further, the “MICa (MIC of drug used alone)” value with C. perfringens CVCC 46 [7] (CVCC 46) amounted to 0.96 µM. Besides, the “MICC (MIC of drug used in combination)” value in the data set on C. perfringens CVCC 46 [7] (combination Virginiamycin-MP1102, CVCC 46) was 0.12 µM; with C. perfringens CVCC 46 [7] (combination Virginiamycin-NZ2114, CVCC 46), 0.48 µM. Moreover, the FIC with C. perfringens CVCC 46 [7] (combination Virginiamycin-MP1102, MIC in combination / MIC alone) was 0.125; in the data set on C. perfringens CVCC 46 [7] (combination Virginiamycin-NZ2114, MIC in combination / MIC alone), 0.5. Moreover, in the data set on C. perfringens CVCC 46 [5] (setting [21]), the MBC turned out to be 0.96 µM. Further, the “Time to 99.9% reduction” value with C. perfringens CVCC 46 [13] (setting [22]) is 2~4 h.
